We go through 18 molecules from US8030346B2, “Heterocyclic quinolone derivatives that inhibit prolyl hydroxylase activity” (Amgen Inc., priority 2007, dated 2011).

Structures are written as SMILES.

One test deals with HIF PHD2 (Homo sapiens, UniProt Q9GZT9). Briefly: PHD2 inhibition assay (TR-FRET, VCB-Eu detection of hydroxylated P564-HIF1α peptide). As to conditions: Table of PHD2 IC50 values of Example Compounds. The format is biochemical. The procedure:
Inhibition of HIF PHD2 activity was quantified utilizing the TR-FRET technology. HIF PHD2 catalyzes a hydroxyl modification on the proline residue of the P564-HIF1α peptide substrate (Biotin-[…] (SEQ ID NO: 7)) resulting in recognition and binding of the europylated Von Hippel-Lindau protein (pVHL), elongin B and elongin C heterotrimeric (VCB-Eu) complex.
The PHD2 inhibition assay was executed by addition of freshly dissolved FeCl2 to 178.57 μM (100 μM final concentration) in PHD2 Reaction Buffer containing 30 mM MES, pH 6, 10 mM NaCl, 0.25% Brij-35, 0.01% BSA, and 1% DMSO. 28 μL of the iron solution and 2 μL of inhibitor compounds serially diluted in 100% DMSO (5% DMSO final) were added to black polypropylene 96-well microtiter plates. To that, 10 μL of 10 nM PHD2 (2 nM final) was added to all wells of the plate except for the 8 wells of column 12 (LO control), and allowed to incubate at room temperature on the shaker for one hour. Column 6 was the HI control containing PHD2 enzyme and 5% DMSO vehicle, but no inhibitor compound. To initiate the PHD2 enzymatic reaction, 10 μL of a solution containing 500 nM P564-HIF1α peptide (100 nM final), 10 mM ascorbic acid (2 mM final), and 1.25 μM 2-oxoglutarate (α-ketoglutarate; 0.25 μM final) in PHD2 Reaction Buffer was added to all wells of the plate and allowed to incubate on the shaker at room temperature for one hour.
The reaction was terminated by addition of 25 μL TR-FRET Buffer (50 mM TRIS-HCl, pH 9, 100 mM NaCl, 0.05% BSA, and 0.5% Tween-20) containing 150 mM succinate (product inhibitor; 50 mM final), 75 nM streptavidin-APC (25 nM final), and 7.5 nM VCB-Eu (2.5 nM final). The TR-FRET detection reagents were placed on a shaker for 1 hour to reach binding equilibrium before reading on the Discovery platform (PerkinElmer). Europium is excited at 315 nm and phosphoresces at 615 nm with a large Stoke's shift. APC, in turn, emits at 655 nm upon excitation at 615 nm. The TR-FRET signal is measured as the ratio of the APC 655 nm signal divided by the internal europium reference 615 nm emission signal.
The POC (percentage of control) was determined by comparing the signal from hydroxylated peptide substrate in the enzyme reaction containing inhibitor compound with that from PHD2 enzyme with DMSO vehicle alone (HI control), and no enzyme (LO control). POC was calculated using the formula: % control (POC)=(cpd−average LO)/(average HI−average LO)*100. Data (consisting of POC and inhibitor concentration in […]) was fitted to a 4-parameter equation (y=A+((B−A)/(1+((x/C)^D))), where A is the minimum y (POC) value, B is the maximum y (POC), C is the x (cpd concentration) at the point of inflection and D is the slope factor) using a Levenburg-Marquardt non-linear regression algorithm.

Test [1] has as its target T1, Collagen Prolyl Hydroxylase II (CPH2) (Homo sapiens, UniProt O15460).
T1 construct: made in house; host or cells: Trichoplusia ni insect cells (baculovirus, pFastBac1)
Briefly: Collagen prolyl hydroxylase II activity by radiometric HPLC measurement of 2-oxoglutarate conversion to succinic acid. The format is biochemical.
Method: Assay Buffer consisted of Tris-HCl, pH 7.5, 0.2 mM DTT, and 0.5 mg/ml catalase. PPG10 peptide was dissolved in 0.25% acetic acid and denatured by boiling for 5 minutes then placed on ice for 5 minutes. The denatured PPG10 was then pre-mixed with 1 M ascorbate, prepared in water, and the mixture diluted with Assay Buffer to yield a working solution of 5× peptide and ascorbate. FeSO4 was freshly dissolved in water and diluted to a 2.8× concentration in Assay Buffer. Enzyme stocks were diluted to a 5× concentration in Assay Buffer. Example compounds plus FeSO4 solution were mixed, followed by addition of 5× enzyme solutions. After 10 minutes gentle mixing at room temperature, the 5× peptide solution was added. […] Final concentrations in the assay were: 50 mM Tris-HCl, pH 7.5, 0.2 mM DTT, 0.5 mg/mL catalase, 10 μM FeSO4, 100 μM PPG10, 50 μM 5-[^14C]-2-oxoglutarate (23-37 cpm/pmol), 1 mM ascorbate, and 4% DMSO. Reactions were gently mixed at room temperature for 1 hour and terminated by addition of an equal volume of 0.02 N H2SO4.
A portion of each terminated reaction was auto-injected into a Polypore H column (PerkinElmer, Waltham, Mass.) at a rate of 0.3 mL/min with 0.01 NH2SO4 as the mobile phase. The HPLC method employed exploits the difference in pKa of the 2-OG and SA carboxylates to chromatographically separate substrate from product at low pH on ion-exchange resin, as described by Cunliffe, et al (Biochem J., 240, 617-619 (1986)) and Kaule and Gunzler (Anal. Biochem., 184, 291-297 (1990)). An Agilent 1100 HPLC System with dual quaternary pumps, column switching valve, and dual columns was used to resolve product from substrate. The Agilent 1100 Multiple Wavelength Detector indicated UV absorption of the substrate and product peaks at 210 nm and a Beta-RAM Model 2 radiation detector with In-Flow 2:1 scintillation cocktail (IN/US Systems Inc.) enabled quantitation of the 2 radioactive peaks. Laura Lite software (IN/US, Tampa, Fla.) was used to collect and analyze radiometric data. […] To standardize across studies, 2-OG conversion was normalized to percent of control (POC) values using reactions that lacked enzyme or inhibitor as low and high controls, respectively. POC data was fitted to the 4-parameter logistic model (A+((B−A)/(1+((x/C)^D)))) using ActivityBase (IDBS, Alameda Calif.) where A is the minimum POC value, B is the maximum POC value, D is the slope factor, and C is compound concentration at the inflection point (IC50, micromolar).

T1 sequence (O15460 22-533 isoform O15460-2 limits assumed): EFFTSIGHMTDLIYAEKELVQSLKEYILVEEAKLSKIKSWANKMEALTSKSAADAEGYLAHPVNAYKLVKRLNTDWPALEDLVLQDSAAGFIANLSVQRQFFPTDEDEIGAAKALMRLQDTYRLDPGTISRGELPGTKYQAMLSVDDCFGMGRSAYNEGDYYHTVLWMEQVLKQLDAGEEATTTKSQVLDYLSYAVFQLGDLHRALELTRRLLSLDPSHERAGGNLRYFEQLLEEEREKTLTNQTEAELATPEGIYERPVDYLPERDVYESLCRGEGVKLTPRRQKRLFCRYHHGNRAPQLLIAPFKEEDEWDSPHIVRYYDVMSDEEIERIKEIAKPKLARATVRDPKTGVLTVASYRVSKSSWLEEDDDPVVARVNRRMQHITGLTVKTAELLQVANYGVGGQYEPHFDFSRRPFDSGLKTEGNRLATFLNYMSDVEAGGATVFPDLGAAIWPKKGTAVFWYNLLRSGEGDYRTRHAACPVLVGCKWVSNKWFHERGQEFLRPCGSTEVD
T1 sequence (P07237 18-508 partner): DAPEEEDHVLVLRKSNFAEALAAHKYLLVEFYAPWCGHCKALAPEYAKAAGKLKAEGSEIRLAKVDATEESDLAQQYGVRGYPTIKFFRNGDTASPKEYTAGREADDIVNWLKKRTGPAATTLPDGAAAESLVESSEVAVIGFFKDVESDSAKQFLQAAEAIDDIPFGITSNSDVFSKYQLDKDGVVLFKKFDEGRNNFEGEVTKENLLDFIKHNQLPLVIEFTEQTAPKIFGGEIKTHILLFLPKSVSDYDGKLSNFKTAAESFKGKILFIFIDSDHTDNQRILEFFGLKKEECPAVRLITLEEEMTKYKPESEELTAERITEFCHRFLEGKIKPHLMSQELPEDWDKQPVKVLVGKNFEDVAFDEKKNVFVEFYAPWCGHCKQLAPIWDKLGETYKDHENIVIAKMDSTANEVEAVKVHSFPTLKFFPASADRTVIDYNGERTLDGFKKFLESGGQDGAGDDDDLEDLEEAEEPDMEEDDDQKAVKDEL
HIF PHD2, sequence (Q9GZT9 whole entry): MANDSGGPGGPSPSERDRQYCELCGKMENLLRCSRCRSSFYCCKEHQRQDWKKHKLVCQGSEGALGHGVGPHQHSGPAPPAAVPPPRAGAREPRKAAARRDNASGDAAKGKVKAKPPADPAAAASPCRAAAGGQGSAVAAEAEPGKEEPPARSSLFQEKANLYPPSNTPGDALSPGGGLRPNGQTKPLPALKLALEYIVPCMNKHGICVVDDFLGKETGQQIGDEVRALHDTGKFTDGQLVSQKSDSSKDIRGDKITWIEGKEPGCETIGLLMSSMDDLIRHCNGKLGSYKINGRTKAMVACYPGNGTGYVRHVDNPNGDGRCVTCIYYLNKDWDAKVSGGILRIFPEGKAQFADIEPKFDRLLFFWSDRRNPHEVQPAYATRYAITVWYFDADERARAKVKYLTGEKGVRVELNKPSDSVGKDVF

At HIF PHD2, `Cc1ccsc1-c1cc2c(s1)c(O)c(C(=O)NCC(=O)O)c(=O)n2C` [Example 14, 2-(7-hydroxy-4-methyl-2-(3-methylthiophen-2-yl)-5-oxo-4,5-dihydrothieno[3,2-b]pyridine-6-carboxamido)acetic acid] showed an IC50 of 78 nM.
`Cc1csc2c(O)c(C(=O)N[C@@H](C)C(=O)O)c(=O)n(C)c12` [Example 7, (S)-2-(7-hydroxy-3,4-dimethyl-5-oxo-4,5-dihydrothieno[3,2-b]pyridine-6-carboxamido)propanoic acid]: at HIF PHD2, the IC50 came out at 122 nM.
In the case of `Cn1c(=O)c(C(=O)CCC(=O)O)c(O)c2sccc21` [Example 18, 4-(7-hydroxy-4-methyl-5-oxo-4,5-dihydrothieno[3,2-b]pyridin-6-yl)-4-oxobutanoic acid], the IC50 in test [1] came to 34300 nM; at HIF PHD2 it was 3 nM.
Take `Cn1c(=O)c(C(=O)NCC(=O)O)c(O)c2sc3ccccc3c21` [Example 9, N-((4-hydroxy-1-methyl-2-oxo-1,2-dihydro[1]benzothieno[3,2-b]pyridin-3-yl)carbonyl)glycine]: the IC50 against HIF PHD2 came out at 15 nM. That is a double-digit nanomolar value.
`Cn1c(=O)c(C(=O)NCC(=O)O)c(O)c2sccc21` [Example 3, 2-(7-hydroxy-4-methyl-5-oxo-4,5-dihydrothieno[3,2-b]pyridine-6-carboxamido)acetic acid]: the figures for the IC50 (in test [1]; against HIF PHD2) were 345 nM and 75 nM, respectively.
As to `Cc1ncccc1-c1cc2c(s1)c(O)c(C(=O)NCC(=O)O)c(=O)n2C` [Example 13, 2-(7-hydroxy-4-methyl-2-(2-methylpyridin-3-yl)-5-oxo-4,5-dihydrothieno[3,2-b]pyridine-6-carboxamido)acetic acid], on HIF PHD2, the IC50 is 16 nM. That is a double-digit nanomolar value.
Molecule `Cc1c(Br)sc2c(O)c(C(=O)NCC(=O)O)c(=O)n(C)c12` [Example 16, 2-(2-bromo-7-hydroxy-3,4-dimethyl-5-oxo-4,5-dihydrothieno[3,2-b]pyridine-6-carboxamido)acetic acid] had an IC50 at HIF PHD2 of 20 nM.
On to `Cn1c(=O)c(C(=O)NCC(=O)O)c(O)c2sc(C(F)(F)F)c(-c3ccccc3)c21` [Example 8, 2-(7-hydroxy-4-methyl-5-oxo-3-phenyl-2-(trifluoromethyl)-4,5-dihydrothieno[3,2-b]pyridine-6-carboxamido)acetic acid], for which 18 nM corresponded to half-maximal inhibition against HIF PHD2 (IC50).
Take `Cn1c(=O)c(C(=O)CCC(=O)O)c(O)c2sc(Br)cc21` [Example 17, 4-(2-bromo-7-hydroxy-4-methyl-5-oxo-4,5-dihydrothieno[3,2-b]pyridin-6-yl)-4-oxobutanoic acid]: the IC50 in test [1] was determined as 3780 nM; on HIF PHD2, 64 nM.
Regarding `C[C@H](NC(=O)c1c(O)c2sc3ccccc3c2n(C)c1=O)C(=O)O` [Example 10, N-((4-hydroxy-1-methyl-2-oxo-1,2-dihydro[1]benzothieno[3,2-b]pyridin-3-yl)carbonyl)-L-alanine], on HIF PHD2, the half-maximal inhibitory concentration (IC50) was 109 nM.
For the molecule `Cn1c(=O)c(C(=O)NCC(=O)O)c(O)c2sc(Br)cc21` [Example 6, 2-(2-bromo-7-hydroxy-4-methyl-5-oxo-4,5-dihydrothieno[3,2-b]pyridine-6-carboxamido)acetic acid], the IC50 came to 30 nM in test [1] and 7.3 nM against HIF PHD2.
Regarding `Cn1c(=O)c(C(=O)NCC(=O)O)c(O)c2sc(-c3ccc(Cl)cc3)nc21` [Example 1, N-((2-(4-chlorophenyl)-7-hydroxy-4-methyl-5-oxo-4,5-dihydro[1,3]thiazolo[4,5-b]pyridin-6-yl)carbonyl)glycine], it took 47 nM to reach half-maximal inhibition against HIF PHD2 (IC50). In other words, the double-digit nanomolar range.
`Cn1c(=O)c(C(=O)NCC(=O)O)c(O)c2sc(-c3ccccc3)cc21` [Example 15, 2-(7-hydroxy-4-methyl-5-oxo-2-phenyl-4,5-dihydrothieno[3,2-b]pyridine-6-carboxamido)acetic acid] had an IC50 on HIF PHD2 of 21 nM.
As to `Cc1nc2c(s1)c(O)c(C(=O)NCC(=O)O)c(=O)n2C` [Example 2, N-((7-hydroxy-2,4-dimethyl-5-oxo-4,5-dihydro[1,3]thiazolo[4,5-b]pyridin-6-yl)carbonyl)glycine], half-maximal inhibition against HIF PHD2 (IC50) required 20 nM.
On HIF PHD2, `Cn1c(=O)c(C(=O)NCC(=O)O)c(O)c2sc(-c3ccc(Cl)cc3)cc21` [Example 5, 2-(2-(4-chlorophenyl)-7-hydroxy-4-methyl-5-oxo-4,5-dihydrothieno[3,2-b]pyridine-6-carboxamido)acetic acid] registered an IC50 of 97 nM. Against the preceding molecule, the IC50 is about 4.8-fold higher.
Still for that read-out and setting: then `Cc1csc2c(O)c(C(=O)NCC(=O)O)c(=O)n(C)c12` [Example 4, 2-(7-hydroxy-3,4-dimethyl-5-oxo-4,5-dihydrothieno[3,2-b]pyridine-6-carboxamido)acetic acid], with 24 nM.
As to `Cn1c(=O)c(C(=O)NCC(=O)O)c(O)c2sc(-c3ccc(F)cc3)cc21` [Example 11, 2-(2-(4-fluorophenyl)-7-hydroxy-4-methyl-5-oxo-4,5-dihydrothieno[3,2-b]pyridine-6-carboxamido)acetic acid], it took 15 nM to reach half-maximal inhibition on HIF PHD2 (IC50).
Same read-out and setting: then `Cn1c(=O)c(C(=O)NCC(=O)O)c(O)c2sc(-c3cncnc3)cc21` [Example 12, 2-(7-hydroxy-4-methyl-5-oxo-2-(pyrimidin-5-yl)-4,5-dihydrothieno[3,2-b]pyridine-6-carboxamido)acetic acid], with 8.3 nM.
